PubChem BioAssay (NCI)
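Compound exposure: 48 hours, 5 concentrations, 96-well plates. At the TGI there is no net growth.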

Assays:
Assay in all cases: NCI tumour cell line growth inhibition, 48 h
[1] = tested on: 786-0 renal
[2] = tested on: A498 renal
[3] = tested on: A549 NSCLC
[4] = tested on: ACHN renal
[5] = tested on: CAKI-1 renal
[6] = tested on: CCRF-CEM leukemia
[7] = tested on: COLO 205 colon
[8] = tested on: DLD-1 colon
[9] = tested on: DMS 114 small cell lung
[10] = tested on: DMS 273 small cell lung
[11] = tested on: EKVX NSCLC
[12] = tested on: HCC-2998 colon
[13] = tested on: HCT-116 colon
[14] = tested on: HL-60(TB) leukemia
[15] = tested on: HOP-18 NSCLC
[16] = tested on: HOP-62 NSCLC
[17] = tested on: HOP-92 NSCLC
[18] = tested on: IGROV1 ovarian
[19] = tested on: K-562 leukemia
[20] = tested on: KM12 colon
[21] = tested on: KM20L2 colon
[22] = tested on: LOX IMVI melanoma
[23] = tested on: LXFL 529 NSCLC
[24] = tested on: M14 melanoma
[25] = tested on: M19-MEL melanoma
[26] = tested on: MALME-3M melanoma
[27] = tested on: MOLT-4 leukemia
[28] = tested on: NCI-H226 lung
[29] = tested on: NCI-H23 lung
[30] = tested on: NCI-H460 lung
[31] = tested on: NCI-H522 lung
[32] = tested on: OVCAR-3 ovarian
[33] = tested on: OVCAR-4 ovarian
[34] = tested on: OVCAR-5 ovarian
[35] = tested on: OVCAR-8 ovarian
[36] = tested on: RPMI-8226 leukemia
[37] = tested on: RXF 393 renal
[38] = tested on: SF-268 CNS
[39] = tested on: SF-295 CNS
[40] = tested on: SF-539 CNS
[41] = tested on: SK-MEL-2 melanoma
[42] = tested on: SK-MEL-28 melanoma
[43] = tested on: SK-MEL-5 melanoma
[44] = tested on: SK-OV-3 ovarian
[45] = tested on: SN12C renal
[46] = tested on: SNB-19 CNS
[47] = tested on: SNB-75 CNS
[48] = tested on: SNB-78 CNS
[49] = tested on: SW-620 colon
[50] = tested on: TK-10 renal
[51] = tested on: U251 CNS
[52] = tested on: UACC-257 melanoma
[53] = tested on: UACC-62 melanoma
[54] = tested on: UO-31 renal
[55] = tested on: XF 498 CNS
[56] = tested on: HT29 colon
[57] = tested on: SR leukemia

Question: With `Cc1nc(Nc2ccccc2)sc1C(=O)NNC(N)=O` as the compound, how does the TGI [1] read?
Answer: Its TGI is > 100 µM.

Question: What about the TGI [2] of the same compound?
Answer: Its TGI is > 100 µM.

Question: And the TGI [3]?
Answer: The TGI was > 100 µM.

Question: And the TGI [4]?
Answer: The TGI was > 100 µM.

Question: And the TGI [5]?
Answer: The TGI was > 100 µM.

Question: What about the TGI [6] of the same compound?
Answer: Its TGI is > 100 µM.

Question: And the TGI [7]?
Answer: The TGI was > 100 µM.

Question: And the TGI [8]?
Answer: The TGI was > 100 µM.

Question: What about the TGI [9] of the same compound?
Answer: The TGI was > 100 µM.

Question: And the TGI [10]?
Answer: The TGI was > 100 µM.

Question: And the TGI [11]?
Answer: Its TGI is > 100 µM.

Question: And the TGI [12]?
Answer: Its TGI is > 100 µM.

Question: And the TGI [13]?
Answer: The TGI was > 100 µM.

Question: And the TGI [14]?
Answer: The TGI was > 100 µM.

Question: And the TGI [15]?
Answer: Its TGI is > 100 µM.

Question: What about the TGI [16] of the same compound?
Answer: Its TGI is > 100 µM.

Question: And the TGI [17]?
Answer: Its TGI is > 100 µM.

Question: What about the TGI [18] of the same compound?
Answer: The TGI was > 100 µM.

Question: What about the TGI [19] of the same compound?
Answer: Its TGI is > 100 µM.

Question: What about the TGI [20] of the same compound?
Answer: The TGI was > 100 µM.

Question: What about the TGI [21] of the same compound?
Answer: The TGI was > 100 µM.

Question: What about the TGI [22] of the same compound?
Answer: The TGI was > 100 µM.

Question: And the TGI [23]?
Answer: The TGI was > 100 µM.

Question: What about the TGI [24] of the same compound?
Answer: The TGI was > 100 µM.

Question: And the TGI [25]?
Answer: The TGI was > 100 µM.

Question: What about the TGI [26] of the same compound?
Answer: The TGI was > 100 µM.

Question: And the TGI [27]?
Answer: The TGI was > 100 µM.

Question: And the TGI [28]?
Answer: The TGI was > 100 µM.

Question: What about the TGI [29] of the same compound?
Answer: The TGI was > 100 µM.

Question: What about the TGI [30] of the same compound?
Answer: Its TGI is > 100 µM.

Question: What about the TGI [31] of the same compound?
Answer: Its TGI is > 100 µM.

Question: And the TGI [32]?
Answer: The TGI was > 100 µM.

Question: And the TGI [33]?
Answer: The TGI was > 100 µM.

Question: And the TGI [34]?
Answer: The TGI was > 100 µM.

Question: And the TGI [35]?
Answer: Its TGI is > 100 µM.

Question: What about the TGI [36] of the same compound?
Answer: Its TGI is > 100 µM.

Question: What about the TGI [37] of the same compound?
Answer: Its TGI is > 100 µM.

Question: And the TGI [38]?
Answer: Its TGI is > 100 µM.

Question: What about the TGI [39] of the same compound?
Answer: Its TGI is > 100 µM.

Question: And the TGI [40]?
Answer: The TGI was > 100 µM.

Question: What about the TGI [41] of the same compound?
Answer: Its TGI is > 100 µM.

Question: What about the TGI [42] of the same compound?
Answer: Its TGI is > 100 µM.

Question: And the TGI [43]?
Answer: The TGI was > 100 µM.

Question: What about the TGI [44] of the same compound?
Answer: The TGI was > 100 µM.

Question: And the TGI [45]?
Answer: The TGI was > 100 µM.

Question: What about the TGI [46] of the same compound?
Answer: Its TGI is > 100 µM.

Question: What about the TGI [47] of the same compound?
Answer: The TGI was 80.7 µM.

Question: And the TGI [48]?
Answer: Its TGI is > 100 µM.

Question: What about the TGI [49] of the same compound?
Answer: Its TGI is > 100 µM.

Question: What about the TGI [50] of the same compound?
Answer: The TGI was > 100 µM.

Question: What about the TGI [51] of the same compound?
Answer: The TGI was > 100 µM.

Question: What about the TGI [52] of the same compound?
Answer: The TGI was 71.6 µM.

Question: And the TGI [53]?
Answer: Its TGI is > 100 µM.

Question: What about the TGI [54] of the same compound?
Answer: Its TGI is > 100 µM.

Question: And the TGI [55]?
Answer: The TGI was > 100 µM.

Question: What does the source list for `c1cc2[se][se]c3c4cccc5[se][se]c(c(c1)c23)c54`?
Answer: TGI [1]: > 100 µM; TGI [2]: > 100 µM; TGI [3]: > 100 µM; TGI [4]: > 100 µM; TGI [5]: > 100 µM; TGI [6]: > 100 µM; TGI [7]: > 100 µM; TGI [8]: > 100 µM; TGI [9]: > 100 µM; TGI [10]: > 100 µM; TGI [13]: > 100 µM; TGI [14]: > 100 µM; TGI [15]: > 100 µM; TGI [16]: > 100 µM; TGI [17]: > 100 µM; TGI [56]: > 100 µM; TGI [18]: > 100 µM; TGI [19]: > 100 µM; TGI [20]: > 100 µM; TGI [21]: > 100 µM; TGI [22]: > 100 µM; TGI [23]: > 100 µM; TGI [24]: > 100 µM; TGI [25]: > 100 µM; TGI [26]: > 100 µM; TGI [27]: > 100 µM; TGI [28]: > 100 µM; TGI [29]: > 100 µM; TGI [30]: > 100 µM; TGI [31]: > 100 µM; TGI [32]: > 100 µM; TGI [33]: > 100 µM; TGI [34]: > 100 µM; TGI [35]: > 100 µM; TGI [36]: > 100 µM; TGI [37]: > 100 µM; TGI [38]: > 100 µM; TGI [39]: > 100 µM; TGI [40]: > 100 µM; TGI [41]: > 100 µM; TGI [42]: > 100 µM; TGI [43]: > 100 µM; TGI [44]: > 100 µM; TGI [45]: > 100 µM; TGI [46]: > 100 µM; TGI [47]: > 100 µM; TGI [48]: > 100 µM; TGI [57]: > 100 µM; TGI [49]: > 100 µM; TGI [50]: > 100 µM; TGI [51]: > 100 µM; TGI [52]: > 100 µM; TGI [53]: > 100 µM; TGI [54]: > 100 µM; TGI [55]: > 100 µM
